Consider three compounds from patent US20140094402A1, “Lantibiotic NAI-802, Pharmaceutically Acceptable Salts, Compositions and Uses Thereof” ([…] PHARMACEUTICALS, INC., priority 2011, published 2014).

In brackets after ≈: the same amount, converted by molar mass. Read-outs that look alike come from different tables or passages of the source.

The subject of assay [1] is Moraxella catharralis.
Assay [2] deals with Clostridium difficile.
Assay [3] concerns Clostridium perfrigens.
In assay [4] the test system is Clostridium butyricum and Clostridium perfrigens.
Assay [5] has as its system Peptstreptococcus asaccharolyticus. Description: organism not typed. The settings on record: 48 h, read-out: Minimal Inhibitory Concentration.
Assay [6] concerns Staphylococcus aureus Met-S ATCC6538P. Kind of assay: microbe, parasite or virus in culture.
Assay [7] concerns Staphylococcus aureus Met-S ATCC19636. Kind of assay: microbe, parasite or virus in culture.
Assay [8] relates to Staphylococcus aureus Met-R. Description: microbe, parasite or virus in culture. The note with it: read-out: Minimal Inhibitory Concentration.
The test system of assay [9] is Streptococcus pyogenes. Kind of assay: microbe, parasite or virus in culture. The note with it: read-out: Minimal Inhibitory Concentration.
The test system of assay [10] is Streptococcus pneumoniae. Kind of assay: microbe, parasite or virus in culture. The note with it: read-out: Minimal Inhibitory Concentration.
In assay [11] the test system is Enterococcus faecium VanS. Description: microbe, parasite or virus in culture.
The test system of assay [12] is Enterococcus faecium VanA. Kind of assay: microbe, parasite or virus in culture. The note with it: read-out: Minimal Inhibitory Concentration.
The subject of assay [13] is Enterococcus faecalis VanS. Kind of assay: microbe, parasite or virus in culture.
Assay [14] concerns Enterococcus faecalis VanA. Kind of assay: microbe, parasite or virus in culture. The settings on record: read-out: Minimal Inhibitory Concentration.
The subject of assay [15] is Moraxella catharralis. Description: microbe, parasite or virus in culture. The settings on record: read-out: Minimal Inhibitory Concentration.
The subject of assay [16] is Escherichia coli. Kind of assay: microbe, parasite or virus in culture. The settings on record: read-out: Minimal Inhibitory Concentration.
Assay [17] relates to Candida albicans ATCC 90028. Description: microbe, parasite or virus in culture. The note with it: ATCC90028, 48 h, read-out: Minimal Inhibitory Concentration.
Assay [18] deals with Clostridium difficile. Description: microbe, parasite or virus in culture. The settings on record: Clostridioides difficile, 48 h.
In assay [19] the test system is Clostridium butyricum. Description: microbe, parasite or virus in culture. The settings on record: 48 h, read-out: Minimal Inhibitory Concentration.
Assay [20] concerns Clostridium perfrigens. Kind of assay: microbe, parasite or virus in culture. The settings on record: 48 h, read-out: Minimal Inhibitory Concentration.
The test system of assay [21] is Bacteroides fragilis ATCC 25285. Kind of assay: microbe, parasite or virus in culture. The settings on record: ATCC25285, 48 h, read-out: Minimal Inhibitory Concentration.
In assay [22] the test system is Gram positive bacteria, including staphylococci and streptococci. Kind of assay: In vitro antibacterial activity, summary statement. The class given is cell-based.
The subject of assay [23] is Staphylococcus aureus Met-R.
Assay [24] relates to Streptococcus pyogenes.
Assay [25] has as its system Streptococcus pneumoniae.
For assay [26], the system named is Enterococcus faecium VanS.
Assay [27] concerns Enterococcus faecium VanA.
In assay [28] the test system is Enterococcus faecalis VanS.
In assay [29] the test system is Enterococcus faecalis VanA.
For assay [30], the system named is Escherichia coli.
In assay [31] the test system is Candida albicans ATCC 90028. The settings on record: ATCC 90028, 48 h.
Assay [32] has as its system Clostridium butyricum. The settings on record: 48 h.
The subject of assay [33] is Peptstreptococcus asaccharolyticus. The settings on record: 48 h.
The subject of assay [34] is Bacteroides fragilis ATCC 25285. The settings on record: ATCC 25285, 48 h.
Assay [35] relates to Staphylococcus aureus Met-S ATCC6538P. The note with it: ATCC6538.
Setting [36] is: range over codes 4013, 1365, 4015.

Turning to `CN[C@H](CC(C)C)C(=O)N[C@H]1C(=O)N[C@@H](CC(N)=O)C(=O)N[C@H]2C(=O)N[C@H]3C(=O)N[C@H](C(=O)N[C@H](C(=O)O)c4cc(O)cc(O)c4-c4cc3ccc4O)[C@H](O)c3ccc(c(Cl)c3)Oc3cc2cc(c3O[C@@H]2O[C@H](CO)[C@@H](O)[C@H](O)[C@H]2O[C@H]2C[C@](C)(N)[C@H](O)[C@H](C)O2)Oc2ccc(cc2Cl)[C@H]1O` [VA, vancomycin], the “Minimal Inhibitory Concentration” value was more than 128 mg/L in assay [1] (code 3294) and 1 mg/L in assay [3] (code 3607, anaerobic, 48 hours). The “Minimal Inhibitory Concentration, range” value was 0.25 to 0.5 mg/L in assay [2] (setting [36]) and 1 mg/L in assay [4]. The MIC in assay [5] came out at 0.5 µg/mL (≈ 0.345 µM); in [6] (read-out: Minimal Inhibitory Concentration, code 100, +30% bovine serum) it was 1 µg/mL (≈ 0.69 µM); in [6] (read-out: Minimal Inhibitory Concentration, code 100, CAMHB), 0.25 µg/mL (≈ 0.173 µM); in assay [7] (ATCC19636, read-out: Minimal Inhibitory Concentration, code 819, +30% bovine serum) it was 1 µg/mL (≈ 0.69 µM); in assay [7] (ATCC19636, read-out: Minimal Inhibitory Concentration, code 819, CAMHB) it was 0.5 µg/mL (≈ 0.345 µM); in assay [8], 0.5 µg/mL (≈ 0.345 µM). Also, the MIC in [9] was 0.25 µg/mL (≈ 0.173 µM); in assay [10] it was 0.5 µg/mL (≈ 0.345 µM); in assay [11] (read-out: Minimal Inhibitory Concentration, code 568), 2 µg/mL (≈ 1.38 µM); in assay [11] (read-out: Minimal Inhibitory Concentration, code 568, +30% bovine serum), 4 µg/mL (≈ 2.76 µM); in assay [12], more than 128 µg/mL; in assay [13] (read-out: Minimal Inhibitory Concentration, code 559), 1 µg/mL (≈ 0.69 µM). Further, the MIC is 2 µg/mL (≈ 1.38 µM) in assay [13] (read-out: Minimal Inhibitory Concentration, code 559, +30% bovine serum); more than 128 µg/mL in assay [14]; more than 128 µg/mL in [15]; more than 128 µg/mL in assay [16]; more than 128 µg/mL in assay [17]; 0.5 µg/mL (≈ 0.345 µM) in [18] (read-out: Minimal Inhibitory Concentration, code 1365, anaerobic). The MIC in assay [18] (read-out: Minimal Inhibitory Concentration, code 4013, anaerobic) came to 0.25 µg/mL (≈ 0.173 µM); in assay [18] (read-out: Minimal Inhibitory Concentration, code 4015, anaerobic) it was 0.25 µg/mL (≈ 0.173 µM); in assay [19], 1 µg/mL (≈ 0.69 µM); in [20], 1 µg/mL (≈ 0.69 µM); in assay [21], 32 µg/mL (≈ 22.1 µM).
`CC[C@H](C)[C@@H]1NC(=O)C2NC(=O)[C@H](CC(C)C)NC(=O)C(NC(=O)C3CSCC(NC(=O)[C@H](C)N)C(=O)N[C@@H](CO)C(=O)NCC(=O)N[C@@H](Cc4c[nH]c5ccccc45)C(=O)N[C@@H](C(C)C)C(=O)N3)C(C)SCC(NC(=O)[C@H](CCC(=O)O)NC1=O)C(=O)NCC(=O)NC1C(=O)N[C@@H](C(C)C)C(=O)N[C@@H]([C@@H](C)CC)C(=O)NC(CSC2C)C(=O)N[C@@H](C)C(=O)NC(C(=O)N[C@@H](CCCNC(=N)N)C(=O)O)C[S+]([O-])C1C` (some centres unmarked) [NAI-802]: the “antibacterial activity against Gram positive bacteria” value in assay [22] (including staphylococci and streptococci) is on record as “antibacterial activity against Gram positive bacteria”. Moreover, the “Minimal Inhibitory Concentration” value in assay [23] is listed as 32 mg/L; in [24], 0.5 mg/L; in assay [25], 8 mg/L; in assay [26], more than 128 mg/L; in assay [27], 128 mg/L; in assay [28], 128 mg/L. Further, the “Minimal Inhibitory Concentration” value in [29] is listed as 128 mg/L; in assay [1], 64 mg/L; in [30] it was more than 128 mg/L; in assay [31], more than 128 mg/L; in assay [32], 0.25 mg/L; in assay [3] (48 h), 2 mg/L. In addition, the “Minimal Inhibitory Concentration” value in assay [33] is listed as 1 mg/L; in assay [34], more than 128 mg/L. Further, the “Minimal Inhibitory Concentration, range” value in assay [2] and in assay [4] was 0.25 to 2 mg/L throughout.
On to `CC[C@H](C)[C@@H]1NC(=O)C2NC(=O)[C@H](CC(C)C)NC(=O)C(NC(=O)C3CSCC(NC(=O)[C@H](C)N)C(=O)N[C@@H](CO)C(=O)NCC(=O)N[C@@H](Cc4c[nH]c5ccccc45)C(=O)N[C@@H](C(C)C)C(=O)N3)C(C)SCC(NC(=O)[C@H](CCC(=O)O)NC1=O)C(=O)NCC(=O)NC1C(=O)N[C@@H](C(C)C)C(=O)N[C@@H]([C@@H](C)CC)C(=O)NC(CSC2C)C(=O)N[C@@H](C)C(=O)NC(C(=O)N[C@@H](CCCNC(=N)N)C(=O)NCCN)C[S+]([O-])C1C` (some centres unmarked) [NAI-802 monoamide with ethylendiamine], for which the “antibacterial activity compared to native NAI-802” value in assay [22] (against certain organisms) is “more antibacterial active”. Besides, the “Minimal Inhibitory Concentration” value in assay [35] is 4 mg/L; in [23], 8 mg/L; in [24] (code 49, Todd Hewitt broth), “≦0.125 mg/L”; in assay [25], 2 mg/L; in assay [26] it was 32 mg/L; in assay [27] it was 16 mg/L. Also, the “Minimal Inhibitory Concentration” value is given as 32 mg/L in [28]; 32 mg/L in [29]; 32 mg/L in assay [1]; more than 128 mg/L in assay [30]; more than 128 mg/L in [31]; “≦0.125 mg/L” in assay [2] (code 4013, anaerobic, 48 hours). Moreover, the “Minimal Inhibitory Concentration” value in [32] is listed as 1 mg/L; in [33], 0.5 mg/L; in assay [34], more than 128 mg/L. Besides, the “Minimal Inhibitory Concentration, range” value in assay [2] (setting [36]) is “≦0.125-1 mg/L”; in assay [4], 1 to 8 mg/L.
